system: LS513 KRAS G12V (colon); assay: MTT assay; type: cell-based; details: Homo sapiens, LS-513, 72 h, Table 4; 3 days incubation; read-out: MTT assay IC50 KRAS mutant (Colon) LS513 KRAS G12V
Method: MTT assay is frequently used for the purpose of primary screening for the sensitivity of anticancer agents and to examine cytotoxicity. When cancer cells are treated with varying concentrations of any anticancer agent for a predetermined time to induce death of the cells and are then treated with MTT, and when the formation of formazan is measured, the concentration of the anticancer agent, at which about 50% of the cells survive, can be determined. This concentration value is called IC50. IC50 values differ between drugs, and thus can be characteristic of the drugs. Using this method, the effects of anticancer agents against cell proliferation can be quantitatively compared. Thus, in order to measure the cytotoxicity of samples, MTT assay was performed using CellTiter 96 Non-radioactive Cell Proliferation Assay Kit (Promega).
Cells in a cell suspension were counted with a hematocytometer, and then 200 μL of the cell suspension was added to each well of a 96 well plate at a desired concentration (cell amount determined depending on a cell line). After cell seeding, the cells were incubated in a CO2 incubator at 37° C. overnight. After one day of cell stabilization, the cells were treated with desired concentrations of the compounds. The cells were incubated in a CO2 incubator at 37° C. for 3 days, and then the sample was removed, and 200 μL of MTT solution was added to each well. After 2 hours of incubation, the MTT dilution was carefully shaken, and 200 μL of DMSO was added to each well, followed by shaking with a plate shaker for 60 minutes.

Row | SMILES | IC50
1 | CC(C)(C#N)c1cc(C(=O)Nc2cc(Nc3ncccc3-c3ncnc4[nH]cnc34)ccc2F)ccc1Cl [Example 117, N-5-[(3-(9H-purin-6-yl)pyridin-2-yl)amino]-2-fluorophenyl-4-chloro-3-(2-cyanopropan-2-yl)benzamide] | 868 nM
2 | N#CC1(c2cccc(C(=O)Nc3ccc(F)c(Nc4ncccc4-c4ncnc5[nH]cnc45)c3F)c2)CC1 [Example 20, N-(3-(3-(9H-purin-6-yl)pyridin-2-ylamino)-2,4-difluorophenyl)-3-(1-cyanocyclopropyl)benzamide] | 2600 nM
3 | CC(C)(C#N)c1cccc(C(=O)Nc2cc(Nc3ncccc3-c3ncnc4[nH]cnc34)ccc2Cl)c1 [Example 24, N-(5-(3-(9H-purin-6-yl)pyridin-2-ylamino)-2-chlorophenyl)-3-(2-cyanopropan-2-yl)benzamide] | 476 nM
4 | O=C(Nc1ccc(F)c(Nc2ncccc2-c2ncnc3[nH]cnc23)c1F)c1cccc(Cl)c1 [Example 45, N-(3-(3-(9H-Purin-6-Yl)Pyridin-2-Ylamino)-2,4-Difluorophenyl)-3-Chlorobenzamide] | > 10000 nM
5 | Cc1ccc(C(=O)Nc2cc(Nc3ncccc3-c3ncnc4[nH]cnc34)ccc2F)cc1C(F)(F)F [Example 138, N-5-[(3-(9H-purin-6-yl)pyridin-2-yl)amino]-2-fluorophenyl-4-methyl-3-(trifluoromethyl)benzamide] | 403 nM
6 | O=C(Nc1ccc(F)c(Nc2ncccc2-c2ncnc3[nH]cnc23)c1F)c1ccc(Cl)c(C(F)(F)F)c1 [Example 16, N-(3-(3-(9H-purin-6-yl)pyridin-2-ylamino)-2,4-difluorophenyl)-4-chloro-3-(trifluoromethyl)benzamide] | 2780 nM
7 | O=C(Nc1ccc(F)c(Nc2ncccc2-c2ncnc3[nH]cnc23)c1F)c1cc(N2CCOCC2)cc(C(F)(F)F)c1 [Example 18, N-(3-(3-(9H-purin-6-yl)pyridin-2-ylamino)-2,4-difluorophenyl)-3-morpholino-5-(trifluoromethyl)benzamide] | 3020 nM
8 | CC(C)(C#N)c1cc(C(=O)Nc2cc(Nc3ncccc3-c3ncnc4[nH]cnc34)ccc2F)ccc1F [Example 116, N-5-[(3-(9H-purin-6-yl)pyridin-2-yl)amino]-2-fluoropheny-3-(2-cyanopropan-2-yl)-4-fluorobenzamide] | 587 nM
9 | O=C(Nc1cc(Nc2ncccc2-c2ncnc3[nH]cnc23)ccc1Cl)c1cc(C(F)(F)F)cc(C(F)(F)F)c1 [Example 124, N-5-[(3-(9H-purin-6-yl)pyridin-2-yl)amino]-2-chlorophenyl-3,5-bis(trifluoromethyl)benzamide] | 888 nM
10 | COc1ccc(Nc2ncccc2-c2ncnc3[nH]cnc23)cc1NC(=O)c1cccc(C(F)(F)F)c1 [Example 69, N-2-Methoxy-5-[3-(9H-Purin-6-Yl)Pyridin-2-Ylamino)Phenyl-3-Trifluoromethylbenzamide] | 7100 nM
11 | O=C(Nc1cc(Nc2ncccc2-c2ncnc3[nH]cnc23)ccc1F)c1ccc(C(F)(F)F)c(C(F)(F)F)c1 [Example 129, N-5-[(3-(9H-purin-6-yl)pyridin-2-yl)amino]-2-fluorophenyl-3,4-bis(trifluoromethyl)benzamide] | 652 nM
12 | CC(C)(C(N)=O)c1cccc(C(=O)Nc2ccc(F)c(Nc3ncccc3-c3ncnc4[nH]cnc34)c2F)c1 [Example 22, N-(3-(3-(9H-purin-6-yl)pyridin-2-ylamino)-2,4-difluorophenyl)-3-(1-amino-2-methyl-1-oxopropan-2-yl)benzamide] | > 10000 nM
13 | O=C(Nc1ccc(F)c(Nc2ncccc2-c2ncnc3[nH]cnc23)c1F)c1cc(C(F)(F)F)cc(C(F)(F)F)c1 [Example 58, N-2,4-Difluoro-3-[3-(9H-Purin-6-Yl)Pyridin-2-Ylamino)-Phenyl-3,5-Bistrifluoromethylbenzamide] | 407 nM
14 | N#Cc1cccc(C(=O)Nc2ccc(F)c(Nc3ncccc3-c3ncnc4[nH]cnc34)c2F)c1 [Example 37, N-(3-(3-(9H-Purin-6-Yl)Pyridin-2-Ylamino)-2,4-Difluorophenyl)-3-Cyanobenzamide] | > 10000 nM
15 | O=C(Nc1ccc(F)c(Nc2ncccc2-c2ncnc3[nH]cnc23)c1F)c1cccs1 [Example 5, N-(3-(3-(9H-purin-6-yl)pyridin-2-ylamino)-2,4-difluorophenyl)thiophene-2-carboxamide] | > 10000 nM
16 | CC(C)(C#N)c1cccc(C(=O)Nc2cccc(Nc3ncccc3-c3ncnc4[nH]cnc34)c2F)c1 [Example 29, N-(3-(3-(9H-purin-6-yl)pyridin-2-ylamino)-2-fluorophenyl)-3-(2-cyanopropan-2-yl)benzamide] | 978 nM
17 | O=C(Nc1cc(Nc2ncccc2-c2ncnc3[nH]cnc23)ccc1F)c1ccc(F)c(C(F)(F)F)c1 [Example 111, N-5-[(3-(9H-Purin-6-Yl)Pyridin-2-Yl)Amino]-2-Fluorophenyl-4-Fluoro-3-(Trifluoromethyl)Benzamide] | 300 nM

Row | SMILES | IC50
18 | O=C(Nc1cc(Nc2ncccc2-c2ncnc3[nH]cnc23)ccc1F)c1cc(Br)cc(C(F)(F)F)c1 [Example 158, N-5-[(3-(9H-purin-6-yl)pyridin-2-yl)amino]-2-fluorophenyl-3-bromo-5-(trifluoromethyl)benzamide] | 283 nM
19 | COC(=O)Nc1cccc(C(=O)Nc2ccc(F)c(Nc3ncccc3-c3ncnc4[nH]cnc34)c2F)c1 [Example 55, Methyl 3-(3-(3-(9H-Purin-6-Yl)Pyridin-2-Ylamino)-2,4-Difluorophenylcarbamoyl)Phenylcarbamate] | > 10000 nM
20 | CC(C)(C#N)c1cccc(C(=O)Nc2cc(Nc3ncccc3-c3ncnc4[nH]cnc34)c(F)cc2F)c1 [Example 32, N-(5-(3-(9H-Purin-6-Yl)Pyridin-2-Ylamino)-2,4-Difluorophenyl)-3-(2-Cyanopropan-2-Yl)Benzamide] | 173 nM
21 | CC(C)(C#N)c1cccc(C(=O)Nc2c(F)ccc(Nc3ncccc3-c3ncnc4[nH]cnc34)c2F)c1 [Example 25, N-(3-(3-(9H-purin-6-yl)pyridin-2-ylamino)-2,6-difluorophenyl)-3-(2-cyanopropan-2-yl)benzamide] | > 10000 nM
22 | O=C(Nc1cc(Nc2ncccc2-c2ncnc3[nH]cnc23)ccc1F)c1cccc(C(F)(F)F)c1F [Example 121, N-5-[(3-(9H-purin-6-yl)pyridin-2-yl)amino]-2-fluorophenyl-2-fluoro-3-(trifluoromethyl)benzamide] | 304 nM
23 | CN(C)c1cccc(C(=O)Nc2ccc(F)c(Nc3ncccc3-c3ncnc4[nH]cnc34)c2F)c1 [Example 46, N-(3-(3-(9H-Purin-6-Yl)Pyridin-2-Ylamino)-2,4-Difluorophenyl)-3-(Dimethylamino)Benzamide] | 7090 nM
24 | O=C(Nc1ccc(Nc2ncccc2-c2ncnc3[nH]cnc23)cc1)c1cccc(C(F)(F)F)c1 [Example 79, N-4-[3-(9H-Purin-6-Yl)Pyridin-2-Ylamino]Phenyl-3-Trifluoromethylbenzamide] | > 10000 nM
25 | N#Cc1cc(C(=O)Nc2cc(Nc3ncccc3-c3ncnc4[nH]cnc34)ccc2F)cc(C(F)(F)F)c1 [Example 157, N-5-[(3-(9H-purin-6-yl)pyridin-2-yl)amino]-2-fluorophenyl-3-cyano-5-(trifluoromethyl)benzamide] | 464 nM
26 | O=C(Nc1cc(Nc2ncccc2-c2ncnc3[nH]cnc23)ccc1F)c1ccc(C(F)(F)F)c(F)c1 [Example 133, N-5-[(3-(9H-purin-6-yl)pyridin-2-yl)amino]-2-fluorophenyl-3-fluoro-4-(trifluoromethyl)benzamide] | 5600 nM
27 | O=C(Nc1cc(Nc2ncccc2-c2ncnc3[nH]cnc23)c(F)cc1F)c1cccc(C(F)(F)F)c1 [Example 31, N-(5-(3-(9H-Purin-6-Yl)Pyridin-2-Ylamino)-2,4-Difluorophenyl)-3-(Trifluoromethyl)Benzamide] | > 10000 nM
28 | O=C(Nc1cc(Nc2ncccc2-c2ncnc3[nH]cnc23)ccc1F)c1cccc(C(F)(F)F)n1 [Example 136, N-5-[(3-(9H-purin-6-yl)pyridin-2-yl)amino]-2-fluorophenyl-6-(trifluoromethyl) picolinamide] | 2300 nM
29 | O=C(Nc1cc(Nc2ncccc2-c2ncnc3[nH]cnc23)ccc1F)c1cc(C(F)(F)F)ccc1C(F)(F)F [Example 130, N-5-[(3-(9H-purin-6-yl)pyridin-2-yl)amino]-2-fluorophenyl-2,5-bis(trifluoromethyl)benzamide] | 1050 nM
30 | Cc1ccc(Nc2ncccc2-c2ncnc3[nH]cnc23)cc1NC(=O)c1cccc(C(F)(F)F)c1 [Example 68, N-2-Methyl-5-[3-(9H-Purin-6-Yl)Pyridin-2-Ylamino)Phenyl-3-Trifluoromethylbenzamide] | 6590 nM
31 | CC(C)(C#N)c1cccc(C(=O)Nc2ccc(F)c(Nc3ncccc3-c3ncnc4[nH]cnc34)c2F)c1Cl [Example 42, N-(3-(3-(9H-Purin-6-Yl)Pyridin-2-Ylamino)-2,4-Difluorophenyl)-2-Chloro-3-(2-Cyanopropan-2-Yl)Benzamide] | 1330 nM
32 | O=C(Nc1cccc(Nc2ncccc2-c2ncnc3[nH]cnc23)c1)c1cccc(Cl)c1 [Example 48, N-(3-(3-(9H-Purin-6-Yl)Pyridin-2-Ylamino)Phenyl)-3-Chlorobenzamide] | 2480 nM
33 | N#CCc1cccc(NC(=O)c2ccc(F)c(Nc3ncccc3-c3ncnc4[nH]cnc34)c2)c1 [Example 77, N-(3-Cyanomethylphenyl)-4-Fluoro-3-[3-(9H-Purin-6-Yl)Pyridin-2-Ylamino]Benzamide] | 145000 nM

Source: patent US10844062B2, “Pyridine derivative inhibiting RAF kinase and vascular endothelial growth factor receptor, method for preparing same, pharmaceutical composition containing same, and use thereof” (SAMJIN PHARMACEUTICAL CO., LTD., priority 2016, dated 2020)
